Twelve compounds from ChEMBL document CHEMBL1201862, “PubChem BioAssay data set” (2004) can be followed below.

One test has as its target Protein Wnt-3a (Mus musculus, UniProt P27467). As to the kind of experiment: antagonism of Wnt3a pathway luciferase reporter – Wnt-LIGHT cells, luminescence, selectivity assay for Gli-SUFU antagonist project, dose response (AID 651570).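 Note: Wnt-LIGHT reporter cells stimulated with conditioned medium from Wnt3a-producing cells.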 The test is classed as functional. The following applies: read-out: IC50_Mean. (Reporter assays use an easily measured gene product as a stand-in for the process of interest.)

The test system of a further test is Vero. As to the kind of experiment: cells. Type of test: functional. The settings on record: Chlorocebus sabaeus.
A further test addresses Melanocortin receptor 4 (Homo sapiens, UniProt P32245). As to the kind of experiment: inhibitors of MC4R cAMP signaling – cell-based, TR-FRET, biased antagonists, dose response (AID 602298).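 Note: antagonist potency against agonist-stimulated cAMP production.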 Type of test: functional.
Test [1] can be described thus: cAMP pathway inhibition in counterscreen cell line – TR-FRET cAMP detection, counter-screen for MC4R biased antagonist project, dose response (AID 602305).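 Note: U2OS cells stimulated with forskolin near its EC80 as the cAMP inducer; potency is for inhibition of forskolin-stimulated cAMP signaling.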 Type of test: functional, cell-based.
Test [2] has as its system BJ. The experiment in a line: BJ-TERT fibroblast viability loss – cell-based, RAS-independent, luminescence, dose response (AID 1933). Type of test: functional. The following applies: Homo sapiens.
Test [3] has as its system BJ. As to the kind of experiment: BJ-TERT-LT-ST fibroblast viability loss – cell-based, RAS-independent, luminescence, dose response (AID 1935).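 Note: BJ fibroblasts immortalized with TERT plus LT and ST oncogenes.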 The following applies: Homo sapiens. The test is classed as functional.
Test [4] relates to BJ. As to the kind of experiment: growth inhibition of engineered Ras-driven BJ cells – cell-based, alamar blue fluorescence, cherrypicked samples, dose response (AID 2631).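 Note: confirmatory dose-response assay in RAS-dependent BJ fibroblasts engineered with TERT, LT and ST, with cytotoxicity read by fluorescence.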 The following applies: Homo sapiens. Type of test: functional. On the technique in general: The colour change of resazurin is a common sign of viable cells or microbes.
A short description of test [5]: DRD fibroblast viability loss – cell-based, non-viral oncogenic, luminescence, dose response (AID 1934). Type of test: functional. The following applies: Homo sapiens.
For another test, the system named is INS1. The experiment in a line: INS-1E survival protection against cytokine death – cell-based, luminescence, retest, dose response (AID 449756).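 Note: cell death triggered by IL-1 beta plus TNF-alpha plus IFN-gamma mixture; protective hits raise ATP signal compared with cytokine alone wells.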 The test is classed as functional. The settings on record: Rattus norvegicus.
The subject of test [6] is BJ. The experiment in a line: cells. The test is classed as functional, cell-based. The following applies: Homo sapiens.
The next test in a line: cells. The test is classed as functional.
Test [7] is described as follows: THP-1 cell cytotoxicity, dose response, cytotoxicity control for non-replicating M. tuberculosis project (AID 489025). Type of test: functional.
Test [8] deals with Dual specificity tyrosine-phosphorylation-regulated kinase 1A (Rattus norvegicus, UniProt Q63470). Type of test: biochemical, Homo sapiens.
The target in test [9] is T1, Short transient receptor potential channel 4 (Mus musculus, UniProt Q9QUQ5).
T1 sequence (Q9QUQ5 whole entry): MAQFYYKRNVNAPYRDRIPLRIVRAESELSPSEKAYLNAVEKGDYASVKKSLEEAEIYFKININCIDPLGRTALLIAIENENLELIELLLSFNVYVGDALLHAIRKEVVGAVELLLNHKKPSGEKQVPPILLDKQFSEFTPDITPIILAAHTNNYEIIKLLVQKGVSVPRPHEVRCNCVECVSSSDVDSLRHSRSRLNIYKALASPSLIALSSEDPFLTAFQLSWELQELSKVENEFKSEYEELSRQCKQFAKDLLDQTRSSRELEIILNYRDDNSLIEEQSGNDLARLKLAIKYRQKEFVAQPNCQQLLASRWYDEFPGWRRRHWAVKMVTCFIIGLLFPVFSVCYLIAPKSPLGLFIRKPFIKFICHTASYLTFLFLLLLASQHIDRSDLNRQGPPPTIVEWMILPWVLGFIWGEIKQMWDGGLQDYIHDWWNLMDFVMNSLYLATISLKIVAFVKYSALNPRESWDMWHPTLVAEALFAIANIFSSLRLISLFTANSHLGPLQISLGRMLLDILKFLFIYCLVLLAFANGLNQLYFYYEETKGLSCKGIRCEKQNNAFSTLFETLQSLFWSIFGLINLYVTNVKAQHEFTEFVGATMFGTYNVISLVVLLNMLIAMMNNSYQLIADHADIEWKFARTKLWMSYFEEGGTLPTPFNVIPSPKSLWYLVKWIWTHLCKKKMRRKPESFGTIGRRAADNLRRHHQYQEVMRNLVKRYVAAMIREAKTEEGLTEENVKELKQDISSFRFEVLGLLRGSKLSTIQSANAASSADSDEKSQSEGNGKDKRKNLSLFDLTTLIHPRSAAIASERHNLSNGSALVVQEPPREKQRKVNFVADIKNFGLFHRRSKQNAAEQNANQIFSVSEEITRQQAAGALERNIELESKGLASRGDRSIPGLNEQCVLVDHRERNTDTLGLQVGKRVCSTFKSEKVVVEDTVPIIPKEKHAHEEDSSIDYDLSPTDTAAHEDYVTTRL
The experiment in a line: block of DAMGO-driven TRPC4 calcium entry – cell-based, HEK293 TRPC4/mu-opioid, Fluo-4 calcium, dose response (AID 434942).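 Note: potency of inhibitors blocking the TRPC4 calcium response.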 Type of test: functional.

In test [10] the target is FAD-linked sulfhydryl oxidase ALR (Homo sapiens, UniProt P55789). As to the kind of experiment: ALR-catalysed DTT oxidation blockers – biochemical, H2O2 detection, luminescence, cherry-pick, dose response (AID 493248).
Sequence of FAD-linked sulfhydryl oxidase ALR (P55789 whole entry): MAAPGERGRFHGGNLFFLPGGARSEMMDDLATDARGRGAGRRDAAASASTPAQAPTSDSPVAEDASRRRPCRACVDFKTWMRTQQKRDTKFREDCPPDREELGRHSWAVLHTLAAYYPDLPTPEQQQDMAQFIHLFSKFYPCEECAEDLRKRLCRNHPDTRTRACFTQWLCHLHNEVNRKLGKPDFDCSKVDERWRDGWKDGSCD
In test [11] the target is T2, Rac GTPase-activating protein 1 (Homo sapiens, UniProt Q9H0H5).
T2 sequence (Q9H0H5 whole entry): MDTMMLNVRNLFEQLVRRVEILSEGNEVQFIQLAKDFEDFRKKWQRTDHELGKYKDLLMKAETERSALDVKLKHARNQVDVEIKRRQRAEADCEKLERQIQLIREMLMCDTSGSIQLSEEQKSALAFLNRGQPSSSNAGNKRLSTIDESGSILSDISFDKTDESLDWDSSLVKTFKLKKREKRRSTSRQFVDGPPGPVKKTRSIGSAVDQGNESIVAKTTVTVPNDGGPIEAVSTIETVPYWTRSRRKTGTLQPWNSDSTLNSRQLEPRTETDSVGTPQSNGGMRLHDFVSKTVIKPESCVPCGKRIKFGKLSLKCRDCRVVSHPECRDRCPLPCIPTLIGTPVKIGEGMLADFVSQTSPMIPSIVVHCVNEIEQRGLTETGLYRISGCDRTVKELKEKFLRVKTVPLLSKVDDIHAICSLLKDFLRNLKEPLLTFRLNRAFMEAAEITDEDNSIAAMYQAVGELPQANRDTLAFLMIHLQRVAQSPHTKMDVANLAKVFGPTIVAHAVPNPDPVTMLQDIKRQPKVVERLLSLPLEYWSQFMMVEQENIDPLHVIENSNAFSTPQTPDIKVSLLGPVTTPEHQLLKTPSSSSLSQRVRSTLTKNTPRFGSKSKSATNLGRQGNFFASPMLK
The experiment in a line: blockers of MgcRacGAP-driven Rac1 GTP hydrolysis – biochemical, ADP Hunter fluorescence, primary and confirmatory, confirmation (AID 624330). Type of test: functional.

The next test deals with HEK293. As to the kind of experiment: EBV LMP1 TES2 canonical NF-kB signalling blockers – cell-based, HEK293, luciferase, cherry-pick, dose response (AID 588343). The test is classed as functional. The settings on record: Homo sapiens.
Test [12] in a line: Luminescence Cell-Based Dose Confirmation HTS to Identify Inhibitors of Platelet Dense Granule Release. [Related pubchem assays: 1663 (Primary HTS), 1678 (Summary of Project)]. The test is classed as functional.
The target of test [13] is T3, RNA-binding protein pos-1 (Caenorhabditis elegans, UniProt G5EF15).
T3 sequence (G5EF15 whole entry): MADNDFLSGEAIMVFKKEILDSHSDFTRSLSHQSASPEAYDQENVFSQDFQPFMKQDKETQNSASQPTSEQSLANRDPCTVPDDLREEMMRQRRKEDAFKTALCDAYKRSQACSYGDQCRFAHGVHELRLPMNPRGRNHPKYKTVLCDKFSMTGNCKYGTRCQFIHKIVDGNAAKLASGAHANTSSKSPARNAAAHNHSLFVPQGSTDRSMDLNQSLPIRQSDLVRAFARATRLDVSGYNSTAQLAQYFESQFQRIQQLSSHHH
The experiment in a line: disruptors of C. elegans POS-1 RNA interaction – biochemical, fluorescence polarization, dose response (AID 1964).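 Note: purified POS-1 fused to maltose binding protein made in E. coli; potency of compounds blocking POS-1 binding to fluorescent RNA.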

Test [14] in a line: alpha-synuclein stem-loop luciferase translation blockers – H4 neuroglioma cells, luminescence, confirmation (AID 1988). Type of test: functional, cell-based.
The target in test [15] is Glucose-6-phosphate 1-dehydrogenase (Homo sapiens, UniProt P11413). The experiment in a line: inhibition of Homo sapiens G6PD, dose series – biochemical, fluorescence, selectivity assay for P. falciparum G6PD inhibitor project, dose response (AID 504792). Type of test: functional.
Sequence of Glucose-6-phosphate 1-dehydrogenase (P11413 whole entry): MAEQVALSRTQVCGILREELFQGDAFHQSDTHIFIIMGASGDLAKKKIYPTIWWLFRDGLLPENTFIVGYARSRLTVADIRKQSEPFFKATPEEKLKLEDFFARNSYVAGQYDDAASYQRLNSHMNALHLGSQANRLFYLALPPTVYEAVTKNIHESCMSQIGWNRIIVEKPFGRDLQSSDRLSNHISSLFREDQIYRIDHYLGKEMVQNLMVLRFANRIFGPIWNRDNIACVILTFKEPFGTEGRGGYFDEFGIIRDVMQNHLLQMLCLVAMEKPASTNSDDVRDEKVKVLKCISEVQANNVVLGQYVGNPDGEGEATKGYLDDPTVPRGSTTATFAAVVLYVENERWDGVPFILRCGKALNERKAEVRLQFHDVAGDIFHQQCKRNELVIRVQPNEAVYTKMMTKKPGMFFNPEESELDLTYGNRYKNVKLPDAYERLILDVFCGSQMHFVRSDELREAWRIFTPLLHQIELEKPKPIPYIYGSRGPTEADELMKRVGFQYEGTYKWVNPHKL
Test [16] in a line: Luminescence Cell-Based Dose Response HTS to Identify Inhibitors of 5'UTR Stem-Loop Driven Prion Protein mRNA Translation in H4 Neuroglioblastoma Cells. [Related pubchem assays: 1827 (Project Summary), 1813 (Primary HTS)]. Type of test: functional.
Test [17] addresses T4, Zinc finger protein mex-5 (Caenorhabditis elegans, UniProt Q9XUB2).
T4 sequence (Q9XUB2 whole entry): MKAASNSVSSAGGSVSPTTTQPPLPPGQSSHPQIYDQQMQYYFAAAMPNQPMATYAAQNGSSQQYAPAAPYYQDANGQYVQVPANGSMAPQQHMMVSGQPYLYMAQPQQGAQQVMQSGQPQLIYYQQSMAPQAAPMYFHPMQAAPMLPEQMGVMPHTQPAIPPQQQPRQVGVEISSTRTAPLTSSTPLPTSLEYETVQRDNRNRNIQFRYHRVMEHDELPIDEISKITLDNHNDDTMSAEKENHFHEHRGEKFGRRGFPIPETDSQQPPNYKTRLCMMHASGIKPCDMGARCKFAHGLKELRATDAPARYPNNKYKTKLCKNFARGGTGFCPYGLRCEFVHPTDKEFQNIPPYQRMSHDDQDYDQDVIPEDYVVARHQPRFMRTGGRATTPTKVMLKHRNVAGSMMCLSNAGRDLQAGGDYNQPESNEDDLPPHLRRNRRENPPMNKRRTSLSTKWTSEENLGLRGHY
The experiment in a line: potency of MEX-5 RNA-binding blockers – biochemical, C. elegans, fluorescence polarization, dose response (AID 1960). Background: Fluorescence polarisation rises when a labelled molecule tumbles more slowly, as on binding a larger partner.

The target of test [18] is Luciferin 4-monooxygenase (Photinus pyralis, UniProt P08659). As to the kind of experiment: inhibition of purified Photinus pyralis luciferase – biochemical, luminescence, dose response (AID 1891).
Sequence of Luciferin 4-monooxygenase (P08659 whole entry): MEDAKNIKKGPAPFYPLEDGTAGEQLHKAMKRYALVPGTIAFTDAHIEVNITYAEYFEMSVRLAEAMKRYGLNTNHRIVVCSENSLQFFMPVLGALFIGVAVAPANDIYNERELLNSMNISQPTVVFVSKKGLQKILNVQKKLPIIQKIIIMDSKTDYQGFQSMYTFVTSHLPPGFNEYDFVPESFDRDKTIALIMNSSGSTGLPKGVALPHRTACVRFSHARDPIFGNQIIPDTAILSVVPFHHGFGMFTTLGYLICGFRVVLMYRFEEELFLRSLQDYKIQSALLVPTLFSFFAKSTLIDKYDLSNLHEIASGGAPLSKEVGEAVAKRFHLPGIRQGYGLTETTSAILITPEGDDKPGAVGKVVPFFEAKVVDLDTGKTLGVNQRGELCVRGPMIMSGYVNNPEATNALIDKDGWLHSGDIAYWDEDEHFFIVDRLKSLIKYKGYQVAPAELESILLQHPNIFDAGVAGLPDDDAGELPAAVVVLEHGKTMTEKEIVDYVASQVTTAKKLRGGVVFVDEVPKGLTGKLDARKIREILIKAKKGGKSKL

Calls of active or inactive are those of the source.

Sequence of Melanocortin receptor 4 (P32245 whole entry): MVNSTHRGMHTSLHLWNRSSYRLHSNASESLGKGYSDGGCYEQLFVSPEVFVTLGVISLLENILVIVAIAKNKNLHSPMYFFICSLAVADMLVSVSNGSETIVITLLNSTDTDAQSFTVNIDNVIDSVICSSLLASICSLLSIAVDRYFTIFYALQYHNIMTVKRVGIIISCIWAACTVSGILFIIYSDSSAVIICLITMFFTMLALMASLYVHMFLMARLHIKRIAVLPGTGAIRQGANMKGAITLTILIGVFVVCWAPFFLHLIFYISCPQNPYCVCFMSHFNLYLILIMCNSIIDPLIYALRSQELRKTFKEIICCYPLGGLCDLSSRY
Sequence of Protein Wnt-3a (P27467 whole entry): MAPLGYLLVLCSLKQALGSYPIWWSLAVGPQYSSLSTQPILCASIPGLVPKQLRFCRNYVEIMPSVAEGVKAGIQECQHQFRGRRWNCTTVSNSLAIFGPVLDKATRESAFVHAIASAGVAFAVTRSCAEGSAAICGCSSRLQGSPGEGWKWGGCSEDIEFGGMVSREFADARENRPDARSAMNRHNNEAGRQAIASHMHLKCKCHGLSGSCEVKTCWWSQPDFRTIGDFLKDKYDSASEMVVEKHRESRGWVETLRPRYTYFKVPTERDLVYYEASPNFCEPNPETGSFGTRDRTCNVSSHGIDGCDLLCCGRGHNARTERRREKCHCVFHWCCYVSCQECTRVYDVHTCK

As for `COC(=O)c1cc(S(=O)(=O)N2CCC(c3cc(OC)ccc3OC)C2)c[nH]1` (stereo unspecified), on Protein Wnt-3a, the IC50 was 7.87 µM (active).

As usually defined, the CC50 is the concentration that lowers cell viability or growth by half. Consider `CN1C(=O)/C(=C\c2ccc(N3CCCCCC3)cc2)C(=O)NC1=S`, for which the CC50 in the test on Vero was 17.9 µM (active).

With `COC(=O)c1c(NC(=O)CC2SCC(C(=O)OC)NC2=O)sc2c1CCCC2` (stereo unspecified), the IC50 (at Melanocortin receptor 4; in test [1]) was > 64.6 µM (inactive) each time.

In general, EC50 refers to the concentration needed to bring the measured effect to its halfway point. The term AC50 denotes the midpoint of the concentration-response curve, whichever way the signal moves. Take `O=C(NCc1cccnc1)c1ccc(-c2cc3ccccc3oc2=O)cc1`: the EC50 in the test with BJ [2] was 22.6 µM (active); with BJ [3] it was 3.16 µM (active); in the test on BJ [4], 6.49 µM (active); in test [5], > 150 µM (not active); in the test on BJ [6], 11.8 µM (inconclusive). Also, the AC50 in the test with INS1 was 3.61 µM (active).

For the compound `COc1cccc2[nH]c3c(Cl)ncnc3c12`, the IC50 in the test “cells” is > 50 µM (active); at Melanocortin receptor 4, > 64.6 µM (inactive); in test [1] it was > 64.6 µM (inactive). Further, in test [7], the CC50 was 33.9 µM (active).

On to `COc1cc(/C=C2\SC(N3CCC(C)CC3)=NC2=O)ccc1O`, for which the results for the AC50 in test [8] and in [10] were 2.68 µM (active) and 0.929 µM (active), respectively. For the same compound, in test [9], the EC50 was 3.35 µM (active). In addition, the IC50 in test [11] is 16.3 µM (active).

Consider `O=C(CCl)N(CCCNC(=O)C(F)(F)F)c1ccc([N+](=O)[O-])cc1`, for which the EC50 in the test on BJ [2] was 2.53 µM (inconclusive); in the test on BJ [3], 11.6 µM (inconclusive); with BJ [4] it was 0.995 µM (active); in test [5], 4.66 µM (active); in the test with BJ [6], 4.39 µM (active).

Regarding `COc1ccc(-n2c(SC3CCOC3=O)nc3ccccc32)cc1` (stereo unspecified), the IC50 (at Melanocortin receptor 4; in [1]) was > 64.6 µM (inactive) in each case.

Take `Cc1nn(-c2ccc(NC(=O)c3ccncc3)cc2)c(C)c1Cl`: the IC50 on Protein Wnt-3a was 3 µM (active).

On to `C/C(=C\[C@@H](NP(=O)(c1ccccc1)c1ccccc1)c1ccccc1)CO[Si](c1ccccc1)(c1ccccc1)C(C)(C)C`, for which the CC50 with Vero was > 25 µM (active).

Consider `COc1cccc(C(=O)N2CCN(c3nc4cc(C)cc(C)c4cc3C#N)CC2)c1`, for which the AC50 with HEK293 was 194 µM (active).

As to `C(=N\Nc1nc2ccccc2[nH]1)/c1ccccn1`, the concentration giving a half-maximal response (EC50) was 4.15 µM (active) in test [12]; 72.9 µM (active) in test [13]; 5.82 µM (active) in test [14]; 1.99 µM (active) with BJ [4]; 1.29 µM (active) in test [16]; 41.7 µM (active) in [17]. In test [18], the EC50 is 1.16 µM (active). For the same compound, in test [15], the IC50 is > 80 µM (inactive).
